From patent US20260335229A1, “NOVEL COMPOSITIONS” (priority 2025, published 2026)
Where a name gives a salt, the structure may show the parent alone.

How the values were obtained:
[1] = Solubility observed on preparing formulations; assay type: physicochemical; details: pH 5.5 versus pH 5.0
Gram-positive bacteria = details: background statement; cited from earlier work
[2] = 21 °C and standard pressure; cited from earlier work

## CN[C@H]1C(=O)N[C@@H]2Cc3ccc(cc3)Oc3cc4cc(c3O[C@@H]3O[C@H](C(=O)O)[C@@H](O)[C@H](O)[C@H]3NC(=O)CCCCCCCCC(C)C)Oc3ccc(cc3Cl)[C@@H](O)[C@@H]3NC(=O)[C@H](NC(=O)[C@@H]4NC(=O)[C@@H](NC2=O)c2cc(cc(O)c2Cl)Oc2cc1ccc2O)c1ccc(O)c(c1)-c1c(O[C@H]2O[C@H](CO)[C@@H](O)[C@H](O)[C@@H]2O)cc(O)cc1[C@@H](C(=O)NCCCN(C)C)NC3=O [dalbavancin hydrochloride]
[1]
  Solubility: reduced solubility

## CN[C@H]1C(=O)N[C@@H]2Cc3ccc(cc3)Oc3cc4cc(c3O[C@@H]3O[C@H](C(=O)O)[C@@H](O)[C@H](O)[C@H]3NC(=O)CCCCCCCCC(C)C)Oc3ccc(cc3Cl)[C@@H](O)[C@@H]3NC(=O)[C@H](NC(=O)[C@@H]4NC(=O)[C@@H](NC2=O)c2cc(cc(O)c2Cl)Oc2cc1ccc2O)c1ccc(O)c(c1)-c1c(O[C@H]2O[C@H](CO)[C@@H](O)[C@H](O)[C@@H]2O)cc(O)cc1[C@@H](C(=O)NCCCN(C)C)NC3=O [Dalbavancin]
Gram-positive bacteria
  Antibiotic activity: strong antibiotic activity

## CC(O)C(=O)O (stereo not drawn) [lactic acid]
[2]
  pKa: 3.7
